In US9822147B2, “Methods of treating ophthalmic diseases using NPR-B agonists” (priority 2009, dated 2017) one finds EC50 data, which are given here for 15 molecules.

pEC50: −log10 of the molar value. Numbered stars: 1 amine (or outer) side, 2 acyl side, 3 side chain; on linkers, the order of the positions; unused ones are H or OH. Square brackets hold non-standard residues; d marks the D form. Peptide text beside a SMILES is read from it. * marks the point of attachment. X5 = NCCC(=O)N[C@@H]1C[C@@H](C(=O)[*:2])N([*:1])C1; Phe(3,4-Cl2) = N[C@@H](Cc1ccc(Cl)c(Cl)c1)C(=O)O; X7 = N[C@@H]1CCN([*:1])[C@@H]1C(=O)[*:2]; Pro(4R-NH2) = N[C@H]1CN[C@H](C(=O)O)C1; dOrn(Me2) = CN(C)CCC[C@@H](N)C(=O)O; X2 = O=C([C@H]1CCCN([*:1])C1)[*:2]; Hyp = O=C(O)[C@@H]1C[C@@H](O)CN1; NHcycloheptyl = C1CCCC(N*)CC1; NMeL = CN[C@@H](CC(C)C)C(=O)O; Octanoyl = CCCCCCCC(=O)*; Thz = O=C(O)[C@@H]1CSCN1

For the first assay, the target named is T1, NPR-B (Homo sapiens, UniProt P20594).
T1 construct: a functional assay using endogenously NPR-B expressing GTM-3 cells; endogenous in cells; host or cells: GTM-3 (human glaucoma trabecular meshwork cells)
T1 sequence (P20594 23-1047): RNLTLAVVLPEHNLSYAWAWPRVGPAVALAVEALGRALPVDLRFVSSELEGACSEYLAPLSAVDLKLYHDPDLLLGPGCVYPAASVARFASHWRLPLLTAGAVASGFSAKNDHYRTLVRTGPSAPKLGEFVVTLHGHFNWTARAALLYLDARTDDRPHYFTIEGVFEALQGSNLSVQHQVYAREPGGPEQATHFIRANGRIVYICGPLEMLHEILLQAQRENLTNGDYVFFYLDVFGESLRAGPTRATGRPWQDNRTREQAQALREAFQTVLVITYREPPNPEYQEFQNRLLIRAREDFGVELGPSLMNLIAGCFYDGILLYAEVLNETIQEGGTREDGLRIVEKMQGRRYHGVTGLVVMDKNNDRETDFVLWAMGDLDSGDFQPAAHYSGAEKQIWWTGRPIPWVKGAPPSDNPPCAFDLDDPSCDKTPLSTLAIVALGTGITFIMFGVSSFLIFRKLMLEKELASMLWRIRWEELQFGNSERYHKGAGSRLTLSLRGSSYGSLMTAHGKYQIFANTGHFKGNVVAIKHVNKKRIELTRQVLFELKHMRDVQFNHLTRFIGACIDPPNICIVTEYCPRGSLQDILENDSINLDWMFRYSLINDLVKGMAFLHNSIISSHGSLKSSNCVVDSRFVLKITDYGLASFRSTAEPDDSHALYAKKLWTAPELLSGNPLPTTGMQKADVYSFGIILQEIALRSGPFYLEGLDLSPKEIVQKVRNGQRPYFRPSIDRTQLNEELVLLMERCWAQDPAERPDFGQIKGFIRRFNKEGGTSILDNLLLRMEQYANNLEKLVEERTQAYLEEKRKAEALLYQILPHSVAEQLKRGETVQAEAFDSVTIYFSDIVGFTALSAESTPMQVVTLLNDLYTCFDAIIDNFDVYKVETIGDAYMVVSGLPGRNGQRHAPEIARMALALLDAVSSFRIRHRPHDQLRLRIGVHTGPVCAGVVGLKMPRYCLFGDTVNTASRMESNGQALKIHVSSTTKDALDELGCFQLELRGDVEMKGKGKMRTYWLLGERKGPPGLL
Briefly: NPR-B induced production of cyclic GMP in human glaucoma trabecular meshwork cells (GTM-3). The class given is cell-based.
Conditions: not given
`CCCCCCCC(=O)N[C@H](C)C(=O)N[C@@H](Cc1ccccc1)C(=O)NCC(=O)N[C@@H](CC(C)C)C(=O)N1C[C@H](N)C[C@H]1C(=O)N[C@@H](CC(C)C)C(=O)N[C@@H](CC(=O)O)C(=O)N[C@@H](CCCNC(=N)N)C(=O)N[C@H](C(N)=O)[C@@H](C)CC` [JAL-1249, Occ-ala-Phe-Gly-Leu-Tap-Leu-Asp-Arg-Ile-NH2] (HELM PEPTIDE1{[CCCCCCCC(=O)[*:2]].[dA].F.G.L.[N[C@@H]1C[C@@H](C(=O)[*:2])N([*:1])C1].L.D.R.I.[am]}$$$$V2.0) showed a pEC50 of over 6.00.

Still in this assay, the particulars now being: group by EC50 and Emax (CNP = 100%); Table 4; read-out: Activity (group), NPR-B activation assayed with GTM-3 cells.
Take `CCCCCCCC(=O)N1CCC[C@H](C(=O)N[C@@H](Cc2ccccc2)C(=O)N[C@H](CC(C)C)C(=O)N[C@@H](CC(C)C)C(=O)N2C[C@H](NC(=O)CCN)C[C@H]2C(=O)N(C)[C@@H](CC(C)C)C(=O)N[C@@H](CC(=O)O)C(=O)N[C@@H](CCCNC(=N)N)C(=O)N[C@H](C(N)=O)[C@@H](C)CC)C1` [JAL-1323, Occ-Sni-Phe-leu-Leu-Tap(Bal)-Nml-Asp-Arg-Ile-NH2] (Octanoyl-[X2]F[dL]L[X5][NMeL]DRI-NH2): the pEC50 was over 6.00. Regarding `CCCCCCCC(=O)N1CCCC[C@@H]1C(=O)N[C@@H](Cc1ccccc1)C(=O)N[C@H](CC(C)C)C(=O)N[C@@H](CC(C)C)C(=O)N1C[C@H](O)C[C@H]1C(=O)N[C@@H](CC(C)C)C(=O)N[C@@H](CC(=O)O)C(=O)N[C@@H](CCCNC(=N)N)C(=O)N[C@H](C(N)=O)[C@@H](C)CC` [JAL-1054, Occ-pip-Phe-leu-Leu-Hyp-Leu-Asp-Arg-Ile-NH2] (HELM PEPTIDE1{[CCCCCCCC(=O)[*:2]].[O=C([C@H]1CCCCN1[*:1])[*:2]].F.[dL].L.[Hyp].L.D.R.I.[am]}$$$$V2.0), the pEC50 was over 6.00. Regarding `CCCCCCCC(=O)N1CCC[C@H](C(=O)N[C@@H](Cc2ccccc2)C(=O)N[C@H](CC(C)C)C(=O)N[C@@H](CC(C)C)C(=O)N2C[C@H](N)C[C@H]2C(=O)N(C)[C@@H](CC(C)C)C(=O)N[C@@H](CC(=O)O)C(=O)N[C@@H](CCCNC(=N)N)C(=O)NC2CCCCCC2)C1` [JAL-1682, Occ-Sni-Phe-leu-Leu-Tap-Nml-Asp-Arg-Che] (Octanoyl-[X2]F[dL]L[Pro(4R-NH2)][NMeL]DR-NHcycloheptyl), the pEC50 was over 6.00. Turning to `CCCCCCCC(=O)N1CCC[C@H](C(=O)N[C@@H](Cc2ccccc2)C(=O)N[C@H](CC(C)C)C(=O)N[C@@H](CC(C)C)C(=O)N2C[C@H](O)C[C@H]2C(=O)N(C)[C@@H](CC(C)C)C(=O)N[C@H](C(=O)N[C@@H](CCCNC(=N)N)C(=O)N[C@H](C(N)=O)[C@@H](C)CC)C(C)C)C1` [JAL-1398, Occ-Sni-Phe-leu-Leu-Hyp-Nml-Val-Arg-Ile-NH2] (HELM PEPTIDE1{[CCCCCCCC(=O)[*:2]].[O=C([C@H]1CCCN([*:1])C1)[*:2]].F.[dL].L.[Hyp].[meL].V.R.I.[am]}$$$$V2.0), the pEC50 was over 6.00.

`CCCCCCCC(=O)N1CCC[C@H](C(=O)N[C@@H](Cc2ccccc2)C(=O)N[C@H](CC(C)C)C(=O)N[C@@H](CC(C)C)C(=O)N2C[C@H](O)C[C@H]2C(=O)N(C)[C@@H](CC(C)C)C(=O)N[C@@H](CC(=O)O)C(=O)N2CSC[C@H]2C(=O)NC2CCCCCC2)C1` [JAL-1638, Occ-Sni-Phe-leu-Leu-Hyp-Nml-Asp-Eaz-Che] (Octanoyl-[X2]F[dL]L[Hyp][NMeL]D[Thz]-NHcycloheptyl): the pEC50 was over 6.00.

In the case of `CCCCc1cnc(N2CCC[C@H](C(=O)N[C@@H](Cc3ccccc3)C(=O)N[C@H](CC(C)C)C(=O)N[C@@H](CC(C)C)C(=O)N3C[C@H](O)C[C@H]3C(=O)N(C)[C@@H](CC(C)C)C(=O)N[C@@H](CC(=O)O)C(=O)N[C@@H](CCCNC(=N)N)C(=O)N[C@H](C(N)=O)[C@@H](C)CC)C2)s1` [JAL-1382, Sbt-Sni-Phe-leu-Leu-Hyp-Nml-Asp-Arg-Ile-NH2] (HELM PEPTIDE1{[CCCCc1cnc(N2CCC[C@H](C(=O)[*:2])C2)s1].F.[dL].L.[Hyp].[meL].D.R.I.[am]}$$$$V2.0), the pEC50 is over 6.00. Still for that read-out and setting: next, `CCCCCCCC(=O)N1CCC[C@H](C(=O)N[C@@H](Cc2ccc(Cl)c(Cl)c2)C(=O)N[C@H](CC(C)C)C(=O)N[C@@H](CC(C)C)C(=O)N2C[C@H](O)C[C@H]2C(=O)N(C)[C@@H](CC(C)C)C(=O)N[C@@H](CC(=O)O)C(=O)N[C@@H](CCCNC(=N)N)C(=O)N[C@H](C(N)=O)[C@@H](C)CC)C1` [JAL-1496, Occ-Sni-Eaa-leu-Leu-Hyp-Nml-Asp-Arg-Ile-NH2] (Octanoyl-[X2][Phe(3,4-Cl2)][dL]L[Hyp][NMeL]DRI-NH2): over 6.00; `CCCCCCCC(=O)N[C@H](C)C(=O)N[C@@H](Cc1ccccc1)C(=O)N[C@H](CC(C)C)C(=O)N[C@@H](CC(C)C)C(=O)N1C[C@H](O)C[C@H]1C(=O)N(C)[C@@H](CC(C)C)C(=O)N[C@@H](CC(=O)O)C(=O)N(C)[C@@H](CCCNC(=N)N)C(=O)N[C@H](C(N)=O)[C@@H](C)CC` [JAL-1417, Occ-ala-Phe-leu-Leu-Hyp-Nml-Asp-Nmr-Ile-NH2] (HELM PEPTIDE1{[CCCCCCCC(=O)[*:2]].[dA].F.[dL].L.[Hyp].[meL].D.[meR].I.[am]}$$$$V2.0): over 6.00. As to `CCCCCCCC(=O)N[C@H](C)C(=O)N[C@@H](Cc1ccccc1)C(=O)N[C@H](CCCNC(=N)N)C(=O)N[C@@H](CC(C)C)C(=O)N1C[C@H](O)C[C@H]1C(=O)N(C)[C@@H](CC(C)C)C(=O)N[C@@H](CC(=O)O)C(=O)N[C@@H](CCCNC(=N)N)C(=O)N[C@H](C(N)=O)C(C)(C)C` [JAL-1305, Occ-ala-Phe-arg-Leu-Hyp-Nml-Asp-Arg-Tbg-NH2] (HELM PEPTIDE1{[CCCCCCCC(=O)[*:2]].[dA].F.[dR].L.[Hyp].[meL].D.R.[CC(C)(C)[C@H](N[*:1])C(=O)[*:2]].[am]}$$$$V2.0), the pEC50 is over 6.00.

As to `CCCCCCCC(=O)N1CCC[C@H](C(=O)N(C)[C@@H](Cc2ccccc2)C(=O)N[C@H](CC(C)C)C(=O)N[C@@H](CC(C)C)C(=O)N2C[C@H](O)C[C@H]2C(=O)N(C)[C@@H](CC(C)C)C(=O)N[C@@H](CC(=O)O)C(=O)N[C@@H](CCCNC(=N)N)C(=O)N[C@H](C(N)=O)[C@@H](C)CC)C1` [JAL-1573, Occ-Sni-Nmf-leu-Leu-Hyp-Nml-Asp-Arg-Ile-NH2] (HELM PEPTIDE1{[CCCCCCCC(=O)[*:2]].[O=C([C@H]1CCCN([*:1])C1)[*:2]].[meF].[dL].L.[Hyp].[meL].D.R.I.[am]}$$$$V2.0), the pEC50 was over 6.00. For `CCCCCCCC(=O)N[C@H](C)C(=O)N[C@@H](Cc1ccccc1)C(=O)N[C@H](CC(C)C)C(=O)N[C@@H](CC(C)C)C(=O)N1C[C@H](O)C[C@H]1C(=O)N[C@@H](CN(C)C)C(=O)N[C@@H](CC(=O)O)C(=O)N[C@@H](CCCNC(=N)N)C(=O)N[C@H](C(N)=O)[C@@H](C)CC` [JAL-1367, Occ-ala-Phe-leu-Leu-Hyp-Dap(Me2)-Asp-Arg-Ile-NH2] (HELM PEPTIDE1{[CCCCCCCC(=O)[*:2]].[dA].F.[dL].L.[Hyp].[CN(C)C[C@H](N[*:1])C(=O)[*:2]].D.R.I.[am]}$$$$V2.0), the pEC50 is over 6.00. Same read-out and setting: next, `CCCCCCCC(=O)N[C@H](C)C(=O)N[C@@H](Cc1ccccc1)C(=O)N[C@H](CC(C)C)C(=O)N[C@@H](CC(C)C)C(=O)N1C[C@H](O)C[C@H]1C(=O)N(C)[C@@H](CC(C)C)C(=O)N[C@@H](CC(=O)O)C(=O)N[C@@H](CCCNC(=N)N)C(=O)N[C@H](C(N)=O)C(C)(C)C` [JAL-1352, Occ-ala-Phe-leu-Leu-Hyp-Nml-Asp-Arg-Tbg-NH2] (HELM PEPTIDE1{[CCCCCCCC(=O)[*:2]].[dA].F.[dL].L.[Hyp].[meL].D.R.[CC(C)(C)[C@H](N[*:1])C(=O)[*:2]].[am]}$$$$V2.0): over 6.00; `CCCCCCCC(=O)N1CCC[C@H](C(=O)N[C@@H](Cc2ccccc2)C(=O)N[C@H](CCCN(C)C)C(=O)N[C@@H](CC(C)C)C(=O)N2C[C@H](O)C[C@H]2C(=O)N(C)[C@@H](CC(C)C)C(=O)N[C@H](C(=O)N[C@@H](CCCNC(=N)N)C(=O)N[C@H](C(N)=O)[C@@H](C)CC)C(C)C)C1` [JAL-1782, Occ-Sni-Phe-orn(Me2)-Leu-Hyp-Nml-Val-Arg-Ile-NH2] (Octanoyl-[X2]F[dOrn(Me2)]L[Hyp][NMeL]VRI-NH2): over 6.00.

Take `CCCCCCCC(=O)N1CCC[C@H](C(=O)N[C@@H](Cc2ccccc2)C(=O)N[C@H](CC(C)C)C(=O)N[C@@H](CC(C)C)C(=O)N2C[C@H](O)C[C@H]2C(=O)N(C)[C@@H](CC(C)C)C(=O)N[C@@H](CC(=O)O)C(=O)N2CC[C@@H](N)[C@H]2C(=O)NC2CCCCCC2)C1` [JAL-1679, Occ-Sni-Phe-leu-Leu-Hyp-Nml-Asp-Pca-Che] (Octanoyl-[X2]F[dL]L[Hyp][NMeL]D[X7]-NHcycloheptyl): the pEC50 is over 6.00.
